From patent publication US20190255073A1, “ESTERS OF 3-POLYAMINE DERIVATIVES OF BILE ACIDS FOR THE TREATMENT OF INFECTIONS” (VIRBAC, priority 2016, published 2019)
≈ marks a conversion by molar mass, not a printed value. Where two headings read alike, the source gives them in different places.

Key:
CHO-K1 cells = assay: WST1 cytotoxicity test on CHO-K1 cells; type: cell-based, Chinese hamster; details: Cricetulus griseus
Outline: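 Viability read-out: WST-1 tetrazolium cleavage by mitochondrial dehydrogenases, 20 min at 37 °C, A450. Compounds added at rising concentrations, in duplicate, to CHO-K1 cells for 24 h (37 °C, 5% CO2). IC50, the concentration halving viability, fitted by nonlinear regression.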

S. aureus (340) = assay: MIC determination by microplate dilution, S. aureus animal strain; type: cell-based, Staphylococcus aureus; details: Staphylococcus aureus, Gram-positive, Mueller-Hinton medium, 24 h, 37° C.
Outline: (§1)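 OD620 read-out after 24 h at 37 °C. Mueller-Hinton broth, 0.5 cascade dilution of test compound, wells seeded to OD 0.01. Stock 5 mg/mL in DMSO/MeOH 50/50; duplicate runs.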

E. coli (1956) = assay: MIC determination by microplate dilution, E. coli animal strain; type: cell-based, Escherichia coli; details: Escherichia coli, Gram-negative, Mueller-Hinton medium, 24 h, 37° C.
Outline: as §1

E. coli ATCC28922 = assay: MIC determination by microplate dilution, E. coli human strain; type: cell-based, Escherichia coli; details: Escherichia coli, ATCC28922, Gram-negative, Mueller-Hinton medium, 24 h, 37° C.
Outline: as §1

S. intermedius (1051997) = assay: MIC determination by microplate dilution, S. intermedius animal strain; type: cell-based, Staphylococcus intermedius; details: Staphylococcus intermedius, Gram-positive, Mueller-Hinton medium, 24 h, 37° C.
Outline: as §1

P. aeruginosa (1051575) [1] = assay: MIC determination by microplate dilution, P. aeruginosa animal strain; type: cell-based, Pseudomonas aeruginosa; details: Pseudomonas aeruginosa, Gram-negative, Mueller-Hinton medium, 24 h, 37° C.
Outline: as §1

P. aeruginosa ATCC27853 = assay: MIC determination by microplate dilution, P. aeruginosa human strain; type: cell-based, Pseudomonas aeruginosa; details: Pseudomonas aeruginosa, ATCC27853, Gram-negative, Mueller-Hinton medium, 24 h, 37° C.
Outline: as §1

S. aureus ATCC25923 = assay: MIC determination by microplate dilution, S. aureus human strain; type: cell-based, Staphylococcus aureus; details: Staphylococcus aureus, ATCC25923, Gram-positive, Mueller-Hinton medium, 24 h, 37° C.
Outline: as §1

C. albicans = assay: Antifungal activity, cascade microdilution, C. albicans; type: cell-based, Candida albicans; details: Candida albicans, 24 h, read-out: IC50 (μg/mL) C. albicans
E. faecalis ATCC29212 = assay: MIC determination by microplate dilution, E. faecalis human strain; type: cell-based, Enterococcus faecalis; details: Enterococcus faecalis, ATCC29212, Gram-positive, Mueller-Hinton medium, 24 h, 37° C.
Outline: as §1

P. aeruginosa (1051575) [2] = assay: Potentiation of the doxycycline activity at 2 μg/mL; type: cell-based, Pseudomonas aeruginosa; details: in combination with doxycycline 2 μg/mL; 24 h, 37°
A. niger = assay: Antifungal activity, cascade microdilution, A. niger; type: cell-based; details: Aspergillus niger, 24 h, read-out: IC50 (μg/mL) A. niger
Procedure: 1) Preparation of the Preculture
A negative control (2 mL of sterile Mueller Hinton MH culture medium)
A positive control (1980 μL of culture medium+20 μL of yeast or fungal suspension) from a thawed biological strain (the biological strains are stored at −80° C. in glycerol).
The tubes were incubated at 37° C. for 24 hours at 100 rpm.
The chemical compounds to be tested were prepared at a concentration of 5 mg/mL (in the form of the hydrochloride in water).
2) Preparation of the Microplate for the Determination of the Minimum Inhibitory Concentration (MIC)
The MIC is obtained by using the cascade microdilution method in sterile 96-well plates. 100 μL of MH culture medium are first placed in each well, and 8 μL of the solution (5 mg/mL) of the test molecule are then added to the first wells. The volume is made up with medium to obtain a total volume of 200 μL in these wells. Serial dilution is then performed by taking 100 μL from the first well, and so on successively from well to well. 100 μL of inoculate containing 2-6×10^5 CFU of yeast or fungi are then added to each well. Certain wells are reserved for positive and negative controls.
3) Reading of the Results
After incubation, an optical density (OD) reading was taken in an iEMS plate spectrophotometer at 620 nm. Calculation of the minimum inhibitory concentration (MIC) was performed.

P. aeruginosa (1051575) [3] = assay: Potentiation of chloramphenicol activity; type: cell-based, Pseudomonas aeruginosa; details: concentration of compound required with chloramphenicol 4 μg/mL
Procedure: (§2) This method requires the use of a 96-well plate: 100 μL of a liquid culture medium are placed in each well and then seeded with the microbial suspension prepared previously. The required volume to be seeded is calculated for an OD of 0.01, which corresponds to about 5×10^6 bacteria in each well. In this plate, the first line corresponds to a negative control (200 μL of sterile culture medium in each well), the second line corresponds to a positive control (100 μL of sterile culture medium+100 μL of the bacterial suspension), and the third line contains 192 μL of culture medium; 8 μL of compound of formula (I) to be tested are placed in each well. […] 92 μL of bacterial suspension are then added to lines 3 to 8. […] After 24 hours of incubation at 37° C., 40 μL of nitro tetrazolium iodide are added to each well to reveal the presence of live bacteria by staining the medium pink.
(§3) The procedure is identical to that indicated in Example 5 above. […]
(§4) The results are given in table V. They indicate the concentration of compound of formula (I) required to be able to restore the activity of the antibiotic under consideration.

P. aeruginosa (1051575) [4] = assay: Potentiation of erythromycin activity; type: cell-based, Pseudomonas aeruginosa; details: concentration of compound required with erythromycin 2 μg/mL
Procedure: This method requires the use of a 96-well plate: 100 μL of a liquid culture medium are placed in each well and then seeded with the microbial suspension prepared previously. The required volume to be seeded is calculated for an OD of 0.01, which corresponds to about 5×10^6 bacteria in each well. In this plate, the first line corresponds to a negative control (200 μL of sterile culture medium in each well), the second line corresponds to a positive control (100 μL of sterile culture medium+100 μL of the bacterial suspension), and the third line contains 192 μL of culture medium; 8 μL of compound of formula (I) to be tested are placed in each well. Thereafter, a cascade dilution is performed from this line. […] (1 mg dissolved in 20 mL) are then added to each well of the lines 3 to 8 to obtain a final antibiotic concentration of 2 μg/mL. 92 μL of bacterial suspension are then added to lines 3 to 8. […] After 24 hours of incubation at 37° C., 40 μL of nitro tetrazolium iodide are added to each well to reveal the presence of live bacteria by staining the medium pink.
The procedure is identical to that indicated in Example 5 above. 8 μL of an antibiotic solution under consideration (1 mg dissolved in 20 mL) are added to obtain a final antibiotic concentration of 2 μg/mL instead of 8 μL of a doxycycline solution.
as §4

P. aeruginosa (1051575) [5] = assay: Potentiation of ampicillin activity; type: cell-based, Pseudomonas aeruginosa; details: concentration of compound required with ampicillin 4 μg/mL
Procedure: as §2, §3, §4

P. aeruginosa (PAO1) = assay: MIC of doxycycline on P. aeruginosa PAO1; type: cell-based; details: Pseudomonas aeruginosa; doxycycline alone; Gram-negative strain P. aeruginosa (PAO1)
Procedure: On the Gram-negative strain of P. aeruginosa (PAO1), doxycycline has an MIC of 40 μg/mL.

[6] = CHO-K1, 24 h, read-out: IC50 (μg/mL) CHO
[7] = CHO-K1, read-out: IC50 (μg/mL) CHO

Structure (SMILES): COC(=O)CC[C@@H](C)[C@H]1CCC2C3C(CC[C@@]21C)[C@@]1(C)CC[C@H](NCCCN(CCCN)CCCN)CC1C[C@H]3O (stereo partly drawn) [(38), methyl 3β-(tris(3-aminopropyl)amine)chenodeoxycholate]
- IC50 (CHO-K1 cells; [6]): 17 µg/mL (≈ 29.5 µM)
- IC50 (CHO-K1 cells; [7]): 17 µg/mL (≈ 29.5 µM)
- MIC (S. aureus (340)): 14 µg/mL (≈ 24.3 µM)
- MIC (E. coli (1956)): 14 µg/mL (≈ 24.3 µM)
- MIC (E. coli ATCC28922): 28 µg/mL (≈ 48.5 µM)
- MIC (S. intermedius (1051997)): 29 µg/mL (≈ 50.3 µM)
- MIC (P. aeruginosa (1051575) [1]): 14 µg/mL (≈ 24.3 µM)
- MIC (P. aeruginosa ATCC27853): 28 µg/mL (≈ 48.5 µM)
- MIC (S. aureus ATCC25923): 14 µg/mL (≈ 24.3 µM)
- IC50 (C. albicans): 115 µg/mL (≈ 199 µM)
- MIC (E. faecalis ATCC29212): 3.5 µg/mL (≈ 6.07 µM)
- MIC - P. aeruginosa (1051575): content of compound of formula (I) to restore the doxycycline activity (at 2 μg/mL) (P. aeruginosa (1051575) [2]): 2 µg/mL
- IC50 (A. niger): 4 µg/mL (≈ 6.93 µM)

Structure (SMILES): CC(C)OC(=O)CC[C@@H](C)[C@H]1CCC2C3C(CC[C@@]21C)[C@@]1(C)CC[C@H](NCCN(CCN)CCN)CC1C[C@H]3O (stereo partly drawn) [(40), isopropyl 3β-(tris(2-aminoethyl)amine)chenodeoxycholate]
- IC50 (CHO-K1 cells; [7]): 140 µg/mL (≈ 249 µM)
- MIC (S. aureus (340)): 14 µg/mL (≈ 24.9 µM)
- MIC (E. coli (1956)): 28 µg/mL (≈ 49.7 µM)
- MIC (E. coli ATCC28922): 14 µg/mL (≈ 24.9 µM)
- MIC P. aeruginosa (1051575), compound + chloramphenicol (P. aeruginosa (1051575) [3]): 4 µg/mL
- MIC (S. intermedius (1051997)): 7 µg/mL (≈ 12.4 µM)
- MIC (P. aeruginosa ATCC27853): 56 µg/mL (≈ 99.5 µM)
- MIC P. aeruginosa (1051575), compound + erythromycin (P. aeruginosa (1051575) [4]): 56 µg/mL
- MIC (S. aureus ATCC25923): 14 µg/mL (≈ 24.9 µM)
- IC50 (C. albicans): 7 µg/mL (≈ 12.4 µM)
- MIC (E. faecalis ATCC29212): 14 µg/mL (≈ 24.9 µM)
- MIC - P. aeruginosa (1051575): content of compound of formula (I) to restore the doxycycline activity (at 2 μg/mL) (P. aeruginosa (1051575) [2]): 4 µg/mL
- MIC P. aeruginosa (1051575), compound + ampicillin (P. aeruginosa (1051575) [5]): 28 µg/mL

Structure (SMILES): CC(C)OC(=O)CC[C@@H](C)[C@H]1CCC2C3C(CC[C@@]21C)[C@@]1(C)CC[C@H](NCCCNCCCNCCCN)CC1C[C@H]3O (stereo partly drawn) [Compound (10), isopropyl 3β-norsperminochenodeoxycholate]
- IC50 (CHO-K1 cells; [6]): 85 µg/mL (≈ 141 µM)
- IC50 (CHO-K1 cells; [7]): 85 µg/mL (≈ 141 µM)
- MIC (S. aureus (340)): 2 µg/mL (≈ 3.31 µM)
- MIC (E. coli (1956)): 10 µg/mL (≈ 16.5 µM)
- MIC (E. coli ATCC28922): 16 µg/mL (≈ 26.4 µM)
- MIC (S. intermedius (1051997)): 0.8 µg/mL (≈ 1.32 µM)
- MIC (P. aeruginosa (1051575) [1]): 4 µg/mL (≈ 6.61 µM)
- MIC (S. aureus ATCC25923): 4 µg/mL (≈ 6.61 µM)
- IC50 (C. albicans): 2 µg/mL (≈ 3.31 µM)
- MIC (E. faecalis ATCC29212): 8 µg/mL (≈ 13.2 µM)
- MIC - P. aeruginosa (1051575): content of compound of formula (I) to restore the doxycycline activity (at 2 μg/mL) (P. aeruginosa (1051575) [2]): 2 µg/mL
- IC50 (A. niger): 4 µg/mL (≈ 6.61 µM)

Structure (SMILES): C[C@H]1c2cccc(O)c2C(=O)C2=C(O)[C@]3(O)C(=O)C(C(N)=O)=C(O)[C@@H](N(C)C)[C@@H]3[C@@H](O)[C@@H]21 [doxycycline]
- MIC (P. aeruginosa (PAO1)): 40 µg/mL
